Measurements as given in BindingDB's records for doi:10.1186/1471-2091-12-59 (Ghent University, 2011).

Assays:
[1] = biological target: T1, Heme-binding protein A (Glaesserella parasuis, UniProt B8F653); assay: Isothermal Titration Calorimetry (ITC); conditions: pH 7.4; 37 °C
T1 sequence (B8F653 whole entry): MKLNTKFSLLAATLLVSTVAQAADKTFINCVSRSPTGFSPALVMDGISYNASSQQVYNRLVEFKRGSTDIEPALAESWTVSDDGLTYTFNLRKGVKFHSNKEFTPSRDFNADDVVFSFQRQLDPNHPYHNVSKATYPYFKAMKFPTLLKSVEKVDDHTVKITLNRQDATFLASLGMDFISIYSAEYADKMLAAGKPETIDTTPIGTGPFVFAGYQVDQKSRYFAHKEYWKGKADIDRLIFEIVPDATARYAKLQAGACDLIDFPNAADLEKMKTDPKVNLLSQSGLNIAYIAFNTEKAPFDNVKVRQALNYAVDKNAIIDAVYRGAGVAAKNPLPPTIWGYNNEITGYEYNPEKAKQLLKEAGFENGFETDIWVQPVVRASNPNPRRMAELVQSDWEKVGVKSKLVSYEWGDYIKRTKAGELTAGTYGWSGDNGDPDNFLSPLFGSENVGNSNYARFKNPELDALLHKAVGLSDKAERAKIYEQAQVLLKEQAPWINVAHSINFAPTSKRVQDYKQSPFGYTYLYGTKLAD
Method: (§1) Purified test proteins were dialyzed overnight against 10 mM Tris-HCl, pH 7.4, at 4°C. The resultant dialysis buffer was then used to dissolve the test compounds. Titrations were always preceded by an initial injection of 3 μL and were carried out using 10-μL injections applied 300 s apart. The sample was stirred at a speed of 400 rpm throughout.

[2] = biological target: Heme-binding protein A (Actinobacillus pleuropneumoniae serovar 9 str. CVJ13261, UniProt A3N3U8); assay: Isothermal Titration Calorimetry (ITC); conditions: pH 7.4; 37 °C
Chain of Heme-binding protein A (Actinobacillus pleuropneumoniae serovar 9 str. CVJ13261, UniProt A3N3U8) (A3N3U8 whole entry): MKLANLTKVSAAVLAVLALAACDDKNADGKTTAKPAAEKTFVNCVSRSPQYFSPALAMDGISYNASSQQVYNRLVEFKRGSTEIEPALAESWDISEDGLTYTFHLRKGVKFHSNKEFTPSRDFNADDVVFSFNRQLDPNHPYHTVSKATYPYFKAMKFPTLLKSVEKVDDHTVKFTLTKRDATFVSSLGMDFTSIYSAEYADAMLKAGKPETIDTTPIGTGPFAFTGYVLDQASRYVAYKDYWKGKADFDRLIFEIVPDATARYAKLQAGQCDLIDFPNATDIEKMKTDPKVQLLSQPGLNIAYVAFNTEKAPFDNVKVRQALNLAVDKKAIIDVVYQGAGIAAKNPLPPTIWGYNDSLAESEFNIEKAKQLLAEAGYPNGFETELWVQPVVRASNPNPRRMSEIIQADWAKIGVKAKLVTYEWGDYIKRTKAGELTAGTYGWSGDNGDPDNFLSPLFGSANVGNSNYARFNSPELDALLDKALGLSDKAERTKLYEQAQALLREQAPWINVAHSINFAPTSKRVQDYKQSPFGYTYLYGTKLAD
Method: as §1

## N[C@@H](CCC(=O)N[C@@H](CS)C(=O)NCC(=O)O)C(=O)O [GLUTATHIONE]
[1]
  Kd: 1900 nM

## CSC[C@H](NC(=O)CC[C@H](N)C(=O)O)C(=O)NCC(=O)O [S-methylglutathione]
[1]
  Kd: 900 nM
[2]
  Kd: 1170 nM
